Laboratory results as given in BindingDB's records for doi:10.1016/s0960-894x(00)00138-4 (Berlex Biosciences, 2000).

The compounds below were run against Cationic trypsin (Bos taurus) (assay: In vitro inhibition of bovine trypsin.).

SMILES	Ki
CCOC(=O)c1cc2ccc(OC3CCN(C(C)=N)CC3)cc2n1Cc1ccc2ccc(C(=N)N)cc2c1 [1-(7-Carbamimidoyl-naphthalen-2-ylmethyl)-6-[1-(1-imino-ethyl)-piperidin-4-yloxy]-1H-indole-2-carboxylic acid ethyl ester]	20 nM
CN(C)C(=O)COc1ccc2c3ccccc3n(Cc3ccc4ccc(C(=N)N)cc4c3)c2c1 [2-[9-(7-Carbamimidoyl-naphthalen-2-ylmethyl)-9H-carbazol-2-yloxy]-N,N-dimethyl-acetamide]	90 nM
N=C(N)c1ccc(-n2c3ccccc3c3ccc(OCc4ccc5ccc(C(=N)N)cc5c4)cc32)cc1 [7-[9-(4-Carbamimidoyl-phenyl)-9H-carbazol-2-yloxymethyl]-naphthalene-2-carboxamidine]	510 nM

Next, values leading:

Ki	SMILES
410 nM	N=C(N)c1ccc(-n2ccc3ccc(NC(=O)c4cccc(C(=N)N)c4)cc32)cc1 [3-Carbamimidoyl-N-[1-(4-carbamimidoyl-phenyl)-1H-indol-6-yl]-benzamide]
1620 nM	N=C(N)c1ccc(-n2ccc3ccc(NCc4cccc(C(=N)N)c4)cc32)cc1 [3-{1-[4-amino(imino)methylphenyl]-1H-6-indolylaminomethyl}phenyl-iminomethanamine]
300 nM	N=C(N)c1ccc(-n2ccc3ccc(NCc4ccc5ccc(C(=N)N)cc5c4)cc32)cc1 [7-{[1-(4-Carbamimidoyl-phenyl)-1H-indol-6-ylamino]-methyl}-naphthalene-2-carboxamidine]
